Our source for the melting point values is patent publication US7662844B2, “Naphthylene derivatives as cytochrome P450 inhibitors” (OSI Pharmaceuticals, Inc., priority 2004, dated 2010).

`CN1CCCC1C(c1ccc2cc(OCc3ccccc3)ccc2c1)n1ccnc1` (single isomer, unassigned) [Example 3-30a, 1-[(6-Benzyloxy-naphthalen-2-yl)-(1-methyl-pyrrolidin-2-yl)-methyl]-1H-imidazole]: the melting point was 124 to 126 °C.
The same measure for `CN1CCCC1C(c1ccc2cc(OCc3ccccc3)ccc2c1)n1ccnc1` (single isomer, unassigned) [Example 3-30b, 1-[(6-Benzyloxy-naphthalen-2-yl)-(1-methyl-pyrrolidin-2-yl)-methyl]-1H-imidazole]: 110 to 112 °C.
